What is called amount remaining is what is left of the initial amount, in per cent.

*1 amine or outer side, *2 acyl side, *3 side chain or, on linkers, in order; H or OH if unused. Where a SMILES comes first, the peptide text is derived from it. Bridges are numbered along the chain shown (N, C = ends). S(p-C6F4)2 = Fc1c(F)c([*:1])c(F)c(F)c1Sc1c(F)c(F)c([*:2])c(F)c1F; X1 = O=C(C=NOCCCCCCOc1cc(C[*:2])cc(C[*:3])c1)[*:1]; X2 = O=C(C=NOCc1cc(C[*:2])cc(C[*:3])c1)[*:1]; mXylylene = c1cc(C[*:1])cc(C[*:2])c1

Test system in one data set: not listed separately
Nature of the data set: Proteolytic stability in Pronase. The following applies: Streptomyces griseus, Pronase (protease mixture) in PBS, pH 7.4.
Method: (§1) In a 600 L Eppendorf tube, we combined 196 L PBS (pH 7.4), 2 L of corresponding peptide
(§2) solution (from 10 mM stock) and 2 L of 0.1 mg/mL PronaseTM. The mixture was vortexed and
(§3) incubated at 37 °C. At indicated time points, 10 L of the solution was sampled, quenched with
(§4) 190 L of 50% aq. CH3CN and maintained at 4 °C until analysis by LCMS.
For `CC(C)C[C@@H]1NC(=O)[C@H](Cc2ccc(O)cc2)NC(=O)[C@@H](NC(=O)[C@H](CC(=O)O)NC(=O)[C@H](Cc2c[nH]cn2)NC(=O)[C@@H](N)CO)CSSC[C@@H](C(N)=O)NC(=O)[C@H](CCC(=O)O)NC1=O` [6a] (H-SHDCYLEC-NH2; disulfide 4-8), the share remaining at 5 h, 100 µM was below 1%.

For the molecule `CC(C)C[C@@H]1NC(=O)[C@H](Cc2ccc(O)cc2)NC(=O)[C@@H]2CSCc3cc(cc(c3)CSC[C@@H](C(N)=O)NC(=O)[C@H](CCC(=O)O)NC1=O)CON=CC(=O)N[C@@H](Cc1c[nH]cn1)C(=O)N[C@@H](CC(=O)O)C(=O)N2` [6c] (HDCYLEC-NH2; linker N-3-7 via X2), the amount remaining at 5 h, 100 µM came to 83 ± 6.9%.

For the molecule `CC(C)C[C@@H]1NC(=O)[C@H](Cc2ccc(O)cc2)NC(=O)[C@@H](NC(=O)[C@H](CC(=O)O)NC(=O)[C@H](Cc2c[nH]cn2)NC(=O)[C@@H](N)CO)CSCc2cccc(c2)CSC[C@@H](C(N)=O)NC(=O)[C@H](CCC(=O)O)NC1=O` [6g] (H-SHDCYLEC-NH2; linker 4-8 via mXylylene), the share remaining at 5 h, 100 µM is below 1%.

Regarding `CC(C)C[C@@H]1NC(=O)[C@H](Cc2ccc(O)cc2)NC(=O)[C@@H]2CSCc3cc(cc(c3)CSC[C@@H](C(N)=O)NC(=O)[C@H](CCC(=O)O)NC1=O)CON=CC(=O)N[C@@H](Cc1c[nH]c3ccccc13)C(=O)N[C@@H](CC(=O)O)C(=O)N[C@@H](Cc1ccc(O)cc1)C(=O)N[C@@H](CCCNC(=N)N)C(=O)N[C@@H](CCC(=O)O)C(=O)N2` [TSL-1-SWDYRECYLEC] (WDYRECYLEC-NH2; linker N-6-10 via X2), the share remaining at 5 h, 100 µM came to 82 ± 13%.

For another data set, the system named is Pronase™. Nature of the data set: Proteolytic stability in Pronase. The following applies: 5 hours, 37 °C.
Method: as §1, §2, §3, §4
As for `CC[C@H](C)[C@H](NC(=O)[C@@H](N)CO)C(=O)N[C@H]1CSc2c(F)c(F)c(c(F)c2F)Sc2c(F)c(F)c(c(F)c2F)SC[C@@H](C(=O)NCC(=O)NCC(=O)NCC(N)=O)NC(=O)[C@H](Cc2ccccc2)NC(=O)[C@H](Cc2ccccc2)NC(=O)[C@H](CCCNC(=N)N)NC1=O` [PFS-SICRFFCGGG] (H-SICRFFCGGG-NH2; linker 3-7 via S(p-C6F4)2), the “stability in Pronase™ (in words)” value was “lower stability than bicycle TSL-3-SICRFFCGGG”.

Test system in another data set: not listed separately
Nature of the data set: in vitro. The following applies: mouse, serum. In kind it is in vitro ADME. The protocol: 4. Proteolytic Stability Methods
4.1. Protocol for measurement of proteolytic stability in cell assay: […]
precipitate any proteins.
4.2. Protocol for measurement of proteolytic stability in PronaseTM :
The mixture was vortexed and […]
peptide solution (from 10 mM stock). The mixture was vortexed and incubated at 37 °C. At […]
precipitate the serum protein.
`C[C@@H]1NC(=O)[C@H](CCCNC(=N)N)NC(=O)[C@H](CCCCN)NC(=O)[C@@H]2CSCc3cc(cc(c3)OCCCCCCON=CC(=O)N[C@@H](Cc3ccc(O)cc3)C(=O)N2)CSC[C@@H](C(N)=O)NC(=O)[C@H](CC(N)=O)NC(=O)[C@H](CCCCN)NC(=O)[C@H](Cc2c[nH]cn2)NC1=O` [19b, TSL-[S]Y[C]KRAHKN[C]] (YCKRAHKNC-NH2; linker N-2-9 via X1) registered a share remaining at 72 h of 53%.

For another data set, the system named is TYK-nu-NODAL cells.
Assay: not given
The data set is classed as cell-based. The following applies: human, 72 h, 10 µM. The protocol: 3.9. General protocol P19 Cell Culture
P19 Cell were obtained from ATCC cell bank and culture in Alpha Minimum Essential Medium with ribonucleotide and […] with 7.5% bovine calf serum and 2.5% fetal bovine serum at 37 °C with 5% CO2 supplementation.
3.10. Inhibition of pSMAD assay with P19 Cell […]
TYK-nu ovarian cancer cells were obtained from JCRB cell bank and cultured in Eagle’s minimal essential medium with 10 % fetal calf serum (Gibco/Thermo Fisher; Waltham, Massachusetts, USA) at 37 °C with 5% CO2 supplementation. To express the constitutive NODAL, a plasmid vector for human NODAL open reading frame (not including the stop codon) was cloned into pCMV6-Entry vector in frame with a tandem MYCDYK (FLAG) tag (Origene Cat. # RC211302). […]
Cells were seeded in three 96 wells plates with 600 cells/well or 6000 cells/well and grow in full media with G418 at 100 μg/mL O/N. The next day the media was changed to contain 19d peptide (10 µM, 1 µM and 0.1 µM) and without G418. Cells viability was measured every 24 hours with CellTiter-Glo® Luminescent Cell Viability Assay (Promega Cat. # G7572) over the course of 72
`C[C@@H]1NC(=O)[C@H](CCCNC(=N)N)NC(=O)[C@H](CCCCN)NC(=O)[C@@H]2CSCc3cc(cc(c3)OCCCCCCON=CC(=O)N[C@@H](Cc3ccc(O)cc3)C(=O)N2)CSC[C@@H](C(N)=O)NC(=O)[C@H](CC(N)=O)NC(=O)[C@H](CCCCN)NC(=O)[C@H](Cc2c[nH]cn2)NC1=O` [19b, TSL-[S]Y[C]KRAHKN[C]] (YCKRAHKNC-NH2; linker N-2-9 via X1): the “viability of TYK-nu-NODAL cells compared to untreated TYK-nu-NODAL cells” value was determined as 23%.

Test system in the next data set: not given
Assay: not given
The settings on record: crosslinker bond; DBMB.
H-SFCDWYGC-NH2 + DBMB had a ring closure, isolated yield of 10%.

In the case of H-SHCDYYC-NH2 + DBMB, the ring closure, isolated yield was 47%.

As for H-SHCVWWDC-NH2 + DBMB, the ring closure, isolated yield was 16%.

Molecule H-SHDCYLEC-NH2 + DBMB yielded a ring closure, isolated yield of 27%.

In turn, H-SICRFFCGGG-NH2 + DBMB returned a ring closure, isolated yield of 46%.

Turning to H-SPCAKGMNYC-NH2 + DBMB, the ring closure, isolated yield was 25%.

H-SPCKAGTGQC-NH2 + DBMB yielded a ring closure, isolated yield of 12%.

Consider H-SPCKGPSATC-NH2 + DBMB, for which the ring closure, isolated yield is 10%.

Molecule H-SPCKGRHHNC-NH2 + DBMB had a ring closure, isolated yield of 63%.

Molecule H-SQCKRAHAEC-NH2 + DBMB had a ring closure, isolated yield of 10%.

Molecule H-SSWPARCLHQDLC-NH2 + DBMB returned a ring closure, isolated yield of 46%.

H-STCQGECGGG-NH2 + DBMB: the ring closure, isolated yield was 19%.

Molecule H-SWDYRECYLEC-NH2 + DBMB came in with a ring closure, isolated yield of 12%.

H-SYCKADC-NH2 + DBMB: the ring closure, isolated yield turned out to be 47%.

H-SYCKPFC-NH2 + DBMB registered a ring closure, isolated yield of 62%.

In the case of H-SYCKRAHKNC-NH2 + DBMB, the ring closure, isolated yield was found to be 32%.

The data set is the same for the next values; noted with them: crosslinker bond; PFS.
The molecule H-SICRFFCGGG-NH2 + PFS registered a ring closure, isolated yield of 40%.

Take H-STCQGECGGG-NH2 + PFS: the ring closure, isolated yield came to 31%.

The data set is the same for the next values; noted with them: crosslinker bond; TBMB.
In turn, Ac-CNTWNPWCPWDAPLCam-NH2 + TBMB yielded a ring closure, isolated yield of 38%.

Ac-CSWPARCLHQDLC-NH2 + TBMB: the ring closure, isolated yield turned out to be 33%.

The same data set, now with this note: crosslinker bond; TSL-1.
As for H-SWDYRECYLEC-NH2 + TSL-1, the ring closure, isolated yield is 54%.

On to H-SYCKADC-NH2 + TSL-1, for which the ring closure, isolated yield was determined as 37%.

Molecule H-SYCKPFC-NH2 + TSL-1 had a ring closure, isolated yield of 41%.

The same data set, now with this note: crosslinker bond; TSL-6.
Molecule H-SWDYRECYLEC-NH2 + TSL-6 had a ring closure, isolated yield of 42%.

The molecule H-SYCKRAHKNC-NH2 + TSL-6 came in with a ring closure, isolated yield of 14%.

On to H-SYCPYSGTNC-NH2 + TSL-6, for which the ring closure, isolated yield was found to be 32%.

A further data set relates to rhNODAL-induced phosphorylation of SMAD2 in P19 cells. Nature of the data set: Inhibition of pSMAD assay with P19 cells (western blot of p-SMAD2). The settings on record: control inhibitor, concentration not given, rhNODAL 100 ng mL^−1, 1 hour. The data set is classed as cell-based. The source says: 3.6. Processing of Illumina data
The Gzip compressed FASTQ files were downloaded from BaseSpace™ Sequence Hub. The files were converted into tables of DNA sequences and their counts per experiment. Briefly, FASTQ files were parsed based on unique multiplexing barcodes within the reads discarding any reads that contained a low-quality score. Mapping the forward (F) and reverse […] barcoding regions, mapping of F and R priming regions allowing no more than one base substitution each and F-R read alignment allowing no mismatches between F and R reads yielded DNA sequences located between the priming regions. The files with DNA reads, raw counts, and mapped peptide modifications were uploaded to http://48hd.cloud/ server. Each experiment has a unique alphanumeric name (e.g., 20181108-16TSooPA-YW) and unique static URL:
Un- http://48hd.cloud/file/23 https://48hd.cloud/file/2 https://48hd.cloud/file/2 […]
TSL-6 https://48hd.cloud/file/2 https://48hd.cloud/file/2 https://48hd.cloud/file/2 […]
Elution https://48hd.cloud/file/2 https://48hd.cloud/file/2 https://48hd.cloud/file/2 […]
Amplificati https://48hd.cloud/file/2 https://48hd.cloud/file/2 https://48hd.cloud/file/2 […]
3.7. General protocol for protein extraction
All samples in the protein extraction protocol were done on ice. […]
(In general: Immunoblotting shows a protein as a band on a membrane.)
In the case of `NC(=O)c1ccc(-c2nc(-c3ccc4c(c3)OCO4)c(-c3ccccn3)[nH]2)cc1` [SB431542], the “inhibition of rhNODAL-induced phosphorylation of SMAD2” value is reported as “inhibited”.

Source of the values: PMC8294009, “Genetically-encoded discovery of proteolytically stable bicyclic inhibitors for morphogen NODAL” (Chemical Science, 2021).
